In assay [1] the target is T1, Strychnine-Insensitive [^3 H]Glycine Binding Sites, washed membranes of rat brain cortex (Rattus norvegicus, UniProt P35439).
T1 construct: washed membranes of rat brain cortex; from tissue; host or cells: brain cortex membranes, male Sprague-Dawley rats (150-175 g)
Briefly: biochemical. The settings on record: 1 h, read-out: [^3 H]-Glycine Binding % DSPL10 @ 10 μM, 10 μM test compound, 60 minutes on ice. As for the experimental part: (§1) Referring to Table IV, there are shown the results obtained in testing a representative number of these compounds. In Table IV, the activity of the compounds for EAA receptor binding is indicated. Compounds were evaluated for their ability to displace [^3 H]-CGS191755, [^3 H]-glycine, [^3 H]-AMPA and [^3 H]-kainate at a screening concentration of 10 μM.
(§2) Binding assays, except for glycine binding, were performed in accordance with the methods described in Schoepp et al., J. Pharmacology and Exp. Therap., Vol. 255, No. 3, pp. 1301-1308 (1990). For all binding assays, male Sprague-Dawley rats (150-175 g) were used. Displacement of the specific binding of ^3 H]CGS19755 (10 nM) to Triton-X-treated synaptosomal membranes of rat forebrain was used to determine NMDA receptor affinity. Nonspecific binding was determined using 10 μM L-glutamate. Samples were incubated in an ice bath for 30 minutes, and bound ligand was separated from the free ligand by rapid filtration through Whatman GF/B glass fiber filters.
The compounds were examined for their ability to displace [^3 H]-glycine from washed membranes of rat brain cortex according to the methods of Shinohara et al., "Ontogeny of Strychnine-Insensitive [^3 H]Glycine Binding Sites in Rat Forebrain", Neurosci. Lett. 105 (1990) 307-311. In each assay, […] [^3 H]-glycine and 25 μg tissue were incubated with test compounds (10 μM in a total volume of 0.5 ml for 60 minutes on ice; incubations were terminated by centrifugation. Non-specific binding was defined as that remaining in the presence of 10 μM D-serine.

Assay [2] relates to AMPA receptor ([^3 H]AMPA binding, crude membranes of rat forebrain). Briefly: [^3 H]-AMPA displacement, EAA receptor binding. The settings on record: 10 μM test compound, [^3 H]AMPA 5 nM, 100 mM KSCN. As for the experimental part:
as §1, §2
The binding of [^3 H]AMPA (5 nM) was conducted with crude membranes of rat forebrain in the presence of 100 mM KSCN, as described by Nielsen et al., "Studies on Receptor-Active Conformations of Excitatory Amino Acid Agonists and Antagonists," Eur. J. Med. Chem. Chim. Ther. 21:433-437 (1986). Nonspecific binding was determined with 10 μM nonlabeled AMPA.

Assay [3] relates to kainate (KA) receptor ([^3 H]Kainate binding, washed synaptosomal membranes from the rat forebrain). Briefly: [^3 H]-kainate displacement, EAA receptor binding. The settings on record: 10 μM test compound, [^3 H]Kainate 5 nM, pH 7.4, 30 min. As for the experimental part: as §1, §2
[^3 H]Kainate binding was performed using washed synaptosomal membranes from the rat forebrain, prepared as described by Simon et al., "Binding of [^3 H]Kainic Acid, an Analogue of L-Glutamate, to Brain Membranes," J. Neurochem. 26:141-147 (1976). [^3 H]Kainate (5 nM) was added to 50 mM Tris-HCl buffer (pH 7.4 at 4°) containing 200-300 μg/ml of tissue protein. Samples were incubated for 30 minutes in an ice bath and then rapidly filtered using a Brandel cell harvester and Whatman GF/C filters. Filters were washed twice with 3 ml of cold buffer. Nonspecific binding was determined using 100 μM nonlabeled kainate.

`O=c1[nH]c2ccc(Br)cc2c2ccnn12` [Compound 28, 9-bromopyrazolo[1,5-c]quinazolin-5(6H)-one]: the inhibition at 10 µM in assay [1] was determined as 4%. The “AMPA % DSPL @ 10 μM” value in assay [2] is on record as 20.7%. Also, in assay [3], the “KA % DSPL @ 10 μM” value amounted to 2.6%.
The corresponding values for `O=c1[nH]c2ccc(Cl)cc2c2ccnn12` [Compound 29, 9-Chloropyrazolo[1,5-c]quinazolin 5(6H)-one] are 5%, 23.1% and 0.3%.
In the case of `O=c1[nH]c2c(Cl)cccc2c2ccnn12` [Compound 30, 7-Chloropyrazolo[1,5-c]quinazolin-5(6H)-one], the inhibition at 10 µM in assay [1] came out at 0%. The “AMPA % DSPL @ 10 μM” value in assay [2] is given as 14.8%. Further, the “KA % DSPL @ 10 μM” value in assay [3] was -0.4%.
The corresponding values for `O=c1[nH]c2cc(Cl)ccc2c2ccnn12` [Compound 31, 8-chloropyrazolo[1,5-c]quinazolin-5(6H)-one] are 42%, 46% and 11.5%.
The matching figures for `O=c1[nH]c2c(Cl)cc(Cl)cc2c2ccnn12` [Compound 33, 7,9-dichloropyrazolo[1,5-c]quinazolin-5(6H)-one]: -3%, 5.1% and 7.4%.
The corresponding values for `Cc1cc2c3ccccc3[nH]c(=O)n2n1` [Compound 34, 2-methylpyrazolo[1,5-c]quinazolin-5(6H)-one] are 13%, 0.2% and 0.9%.
For the compound `O=c1[nH]c2cc(C(F)(F)F)ccc2c2ccnn12` [Compound 35, 8-trifluoromethylpyrazolo[1,5-c]quinazolin-5(6H)-one], in assay [1], the inhibition at 10 µM was determined as 51%. The “AMPA % DSPL @ 10 μM” value in assay [2] is on record as 54.8%. Further, the “KA % DSPL @ 10 μM” value in assay [3] stood at 8.4%.
The corresponding values for `Clc1cc2ncc3nccn3c2cc1Cl` [Compound 36, 7,8-dichloroimidazo[1,2-a]quinoxaline] are 88%, 53.3% and 23.6%.
The matching figures for `O=c1[nH]c2ccc(Cl)cc2c2nc3ccccc3n12` [Compound 38, chlorobenzimidazo[1,2-a]quinazolin-4(5H)-one]: 3%, 4.1% and -0.8%.

The record behind these values is patent US5196421A, “Excitatory amino acid receptor antagonists in methods for the use thereof” (priority 1992, dated 1993).
